Reference: PubChem BioAssay AID1963984 (Molecular Pharmacology Branch, DTP, NCI, 2024)

Test system: 233499-124-R-J3-PDC spheroids with HUVEC/MSC, viability
Experiment: Anticancer human tumor 233499-124-R-J3-PDC patient-derived colon adenocarcinoma cell line growth inhibition [PI3K]
Details: for IC50: curve of first compound; for viability, T/C: stronger effect = lower value
From the text: Combinatorial screen of targeted agents with the PI3K inhibitors inavolisib, alpelisib, duvelisib, and copanlisib in multi-cell type tumor spheroids
A high-throughput screen of multi-cell type tumor spheroids was designed to identify active combinations of targeted small molecules and PI3K pathway inhibitors. Complex spheroids include a stromal component modeled by human endothelial cells (HUVEC) and fibroblasts modeled by human mesenchymal stem cells (MSCs). The concentration ranges selected for each drug and investigational agent were based upon clinically achievable concentrations if the clinical Cmax of the agent was known.
Compounds. The drugs and investigational agents: inavolisib (NSC800729), alpelisib (NSC765974), duvelisib (NSC772469), copanlisib (NSC816437), ipatasertib (NSC767898), afuresertib (NSC778305), talazoparib (NSC767125), sapanisertib (NSC764658), selumetinib (NSC741078), tovorafenib (DAY101, NSC766906), vemurafenib (NSC761431), ravoxertinib (NSC781343), sotorasib (NSC818433), MRTX1133 (NSC 836407), abemaciclib (NSC 768073), palbociclib (NSC758247), venetoclax (NSC 766270), SY5609 (NSC837396), enzalutamide (NSC755605), and darolutamide (NSC825331), were obtained from the National Cancer Institute (NCI) Developmental Therapeutics Program Chemical Repository. The FDA-approved anticancer drug set is available from the NCI Developmental Therapeutics Program. […] The stock solutions were prepared in dimethyl sulfoxide (DMSO, Sigma-Aldrich, St. Louis, MO, cat. D2650) at 800-fold the tested concentration and stored at -70 degrees C prior to their use. All drugs and investigational agents were tested over a range starting from a high concentration at or near the clinical Cmax and decreasing in half-log increments. If the clinical Cmax for an agent had not been determined, the highest concentration tested was 10 microM.
Cell Culture. All cells were maintained in an incubator at 37 degrees C and 5% CO2 with 95% humidity. The PDC lines were cultured according to standard operating procedures established by the NCI PDMR (https://pdmr.cancer.gov/sops/default.htm). All PDCs were thawed and cultured in Matrigel-coated flasks prepared with a working solution of 1X Ham's F-12 nutrient mix, without supplementation (Invitrogen, Waltham, MA, cat. 11765054), 100 U/mL penicillin-streptomycin (Invitrogen, cat. 15140122), and 2.5% Matrigel (Corning Inc., Corning, NY, cat. 354248) for the first three passages. The 354836-022-R-J1-PDC, 475296-252-R-J1-PDC, and 997726-040-R-J2-PDC lines were cultured in 6A media, which includes advanced DMEM/F-12 (Thermo Fisher Scientific, cat. 12634028), 10 mM HEPES (Thermo Fisher Scientific, cat. 15630080), 1X GlutaMAX supplement (Thermo Fisher Scientific, cat. 35050061), 0.1 mg/mL primocin (InvivoGen, San Diego, CA, cat. ant-pm-2), 10% defined fetal bovine serum, heat inactivated (HyClone Laboratories Inc., Logan, UT, cat. SH30070.03HI), 50% L-WRN conditioned media (ATCC, cat. CRL-3276), 1.25 mM N-Acetyl-L-cysteine (Sigma-Aldrich, cat. A9165), 10 mM nicotinamide (Sigma-Aldrich, cat. N0636), 1X B-27 supplement (Thermo Fisher Scientific, cat. 17504044), 1X N-2 supplement (Thermo Fisher Scientific, cat. 17502048), and 10 microM Y-27632 dihydrochloride (Tocris Bioscience, Bristol, United Kingdom, cat. 1254). The 624824-186-R-J2-PDC line was cultured in 6C/Colon 1B media, which includes all 6A media components plus 50 ng/mL human EGF recombinant protein (Thermo Fisher Scientific, cat. PHG0311). […]

[1] = second compound 0.00316 µM, first compound 0.0316 µM
[2] = second compound 0.00316 µM, first compound 0.1 µM
[3] = second compound 0.00316 µM, first compound 0.316 µM
[4] = second compound 0.00316 µM, first compound 1 µM
[5] = second compound 0.00316 µM, first compound 3.16 µM
[6] = second compound 0.00316 µM, first compound 10 µM
[7] = second compound 0.01 µM, first compound 0.0316 µM
[8] = second compound 0.01 µM, first compound 0.1 µM
[9] = second compound 0.01 µM, first compound 0.316 µM
[10] = second compound 0.01 µM, first compound 1 µM
[11] = second compound 0.01 µM, first compound 3.16 µM
[12] = second compound 0.01 µM, first compound 10 µM
[13] = second compound 0.0316 µM, first compound 0.0316 µM
[14] = second compound 0.0316 µM, first compound 0.1 µM
[15] = second compound 0.0316 µM, first compound 0.316 µM
[16] = second compound 0.0316 µM, first compound 1 µM
[17] = second compound 0.0316 µM, first compound 3.16 µM
[18] = second compound 0.0316 µM, first compound 10 µM
[19] = second compound 0.1 µM, first compound 0.0316 µM
[20] = second compound 0.1 µM, first compound 0.1 µM
[21] = second compound 0.1 µM, first compound 0.316 µM
[22] = second compound 0.1 µM, first compound 1 µM
[23] = second compound 0.1 µM, first compound 3.16 µM
[24] = second compound 0.1 µM, first compound 10 µM
[25] = second compound 0.316 µM, first compound 0.0316 µM
[26] = second compound 0.316 µM, first compound 0.1 µM
[27] = second compound 0.316 µM, first compound 0.316 µM
[28] = second compound 0.316 µM, first compound 1 µM
[29] = second compound 0.316 µM, first compound 3.16 µM
[30] = second compound 0.316 µM, first compound 10 µM
[31] = second compound 1 µM, first compound 0.0316 µM
[32] = second compound 1 µM, first compound 0.1 µM
[33] = second compound 1 µM, first compound 0.316 µM
[34] = second compound 1 µM, first compound 1 µM
[35] = second compound 1 µM, first compound 3.16 µM
[36] = second compound 1 µM, first compound 10 µM
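Note: spheroids exposed to agents for seven days before readout.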
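Throughout, for viability, T/C: percent viability relative to DMSO vehicle control taken as 100%.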

## CC1(C)CCC(CN2CCN(c3ccc(C(=O)NS(=O)(=O)c4ccc(NCC5CCOCC5)c([N+](=O)[O-])c4)c(Oc4cnc5[nH]ccc5c4)c3)CC2)=C(c2ccc(Cl)cc2)C1 + CC(Nc1ccc2c(c1)OCCn1cc(N3C(=O)OCC3C(F)F)nc1-2)C(N)=O
Second compound 0.00316 µM
  IC50: 5.38 µM
Second compound 0.01 µM
  IC50: 4.1 µM
Second compound 0.0316 µM
  IC50: 4.86 µM
Second compound 0.1 µM
  IC50: 4.85 µM
Second compound 0.316 µM
  IC50: 2.16 µM
Second compound 1 µM
  IC50: 3.2 µM
[1]
  viability, T/C: 99.3%
[2]
  viability, T/C: 94.1%
[3]
  viability, T/C: 71.9%
[4]
  viability, T/C: 109%
[5]
  viability, T/C: 90.1%
[6]
  viability, T/C: 3.01%
[7]
  viability, T/C: 86%
[8]
  viability, T/C: 85.5%
[9]
  viability, T/C: 96.3%
[10]
  viability, T/C: 74.7%
[11]
  viability, T/C: 65.7%
[12]
  viability, T/C: 2.45%
[13]
  viability, T/C: 79.3%
[14]
  viability, T/C: 66.2%
[15]
  viability, T/C: 75.8%
[16]
  viability, T/C: 73.6%
[17]
  viability, T/C: 93.5%
[18]
  viability, T/C: 3.53%
[19]
  viability, T/C: 60.9%
[20]
  viability, T/C: 85.6%
[21]
  viability, T/C: 86.5%
[22]
  viability, T/C: 81%
[23]
  viability, T/C: 78.8%
[24]
  viability, T/C: 1.51%
[25]
  viability, T/C: 75.8%
[26]
  viability, T/C: 69.3%
[27]
  viability, T/C: 65.2%
[28]
  viability, T/C: 77.2%
[29]
  viability, T/C: 39.2%
[30]
  viability, T/C: 4.28%
[31]
  viability, T/C: 66.8%
[32]
  viability, T/C: 49%
[33]
  viability, T/C: 47.4%
[34]
  viability, T/C: 58.2%
[35]
  viability, T/C: 50.1%
[36]
  viability, T/C: 2.38%

## C[C@@H](NC(=O)c1ncnc(N)c1Cl)c1ncc(C(=O)Nc2cc(C(F)(F)F)c(Cl)cn2)s1 + CC(Nc1ccc2c(c1)OCCn1cc(N3C(=O)OCC3C(F)F)nc1-2)C(N)=O
Second compound 0.00316 µM
  IC50: > 10 µM
Second compound 0.01 µM
  IC50: > 10 µM
Second compound 0.0316 µM
  IC50: > 10 µM
Second compound 0.1 µM
  IC50: > 10 µM
Second compound 0.316 µM
  IC50: > 10 µM
Second compound 1 µM
  IC50: > 10 µM
[1]
  viability, T/C: 102%
[2]
  viability, T/C: 112%
[3]
  viability, T/C: 113%
[4]
  viability, T/C: 105%
[5]
  viability, T/C: 126%
[6]
  viability, T/C: 90.5%
[7]
  viability, T/C: 113%
[8]
  viability, T/C: 119%
[9]
  viability, T/C: 130%
[10]
  viability, T/C: 105%
[11]
  viability, T/C: 111%
[12]
  viability, T/C: 102%
[13]
  viability, T/C: 99.4%
[14]
  viability, T/C: 119%
[15]
  viability, T/C: 109%
[16]
  viability, T/C: 98.6%
[17]
  viability, T/C: 113%
[18]
  viability, T/C: 74.5%
[19]
  viability, T/C: 87.2%
[20]
  viability, T/C: 84.6%
[21]
  viability, T/C: 108%
[22]
  viability, T/C: 106%
[23]
  viability, T/C: 102%
[24]
  viability, T/C: 92%
[25]
  viability, T/C: 82.8%
[26]
  viability, T/C: 81.2%
[27]
  viability, T/C: 85.6%
[28]
  viability, T/C: 95.2%
[29]
  viability, T/C: 102%
[30]
  viability, T/C: 65.8%
[31]
  viability, T/C: 53.5%
[32]
  viability, T/C: 68.5%
[33]
  viability, T/C: 52.5%
[34]
  viability, T/C: 83%
[35]
  viability, T/C: 77.2%
[36]
  viability, T/C: 56.6%

## Cn1ncnc1[C@H]1c2n[nH]c(=O)c3cc(F)cc(c23)N[C@@H]1c1ccc(F)cc1 + CC(Nc1ccc2c(c1)OCCn1cc(N3C(=O)OCC3C(F)F)nc1-2)C(N)=O
Second compound 0.00316 µM
  IC50: > 0.1 µM
Second compound 0.01 µM
  IC50: 0.0966 µM
Second compound 0.0316 µM
  IC50: > 0.1 µM
Second compound 0.1 µM
  IC50: > 0.1 µM
Second compound 0.316 µM
  IC50: > 0.1 µM
Second compound 1 µM
  IC50: 0.0269 µM
Second compound 0.00316 µM, first compound 0.000316 µM
  viability, T/C: 86.6%
Second compound 0.00316 µM, first compound 0.001 µM
  viability, T/C: 109%
Second compound 0.00316 µM, first compound 0.00316 µM
  viability, T/C: 70%
Second compound 0.00316 µM, first compound 0.01 µM
  viability, T/C: 105%
[1]
  viability, T/C: 84.3%
[2]
  viability, T/C: 63.4%
Second compound 0.01 µM, first compound 0.000316 µM
  viability, T/C: 77.7%
Second compound 0.01 µM, first compound 0.001 µM
  viability, T/C: 111%
Second compound 0.01 µM, first compound 0.00316 µM
  viability, T/C: 88.3%
Second compound 0.01 µM, first compound 0.01 µM
  viability, T/C: 92.1%
[7]
  viability, T/C: 97%
[8]
  viability, T/C: 48.7%
Second compound 0.0316 µM, first compound 0.000316 µM
  viability, T/C: 92.6%
Second compound 0.0316 µM, first compound 0.001 µM
  viability, T/C: 81.9%
Second compound 0.0316 µM, first compound 0.00316 µM
  viability, T/C: 63.6%
Second compound 0.0316 µM, first compound 0.01 µM
  viability, T/C: 73.4%
[13]
  viability, T/C: 83.8%
[14]
  viability, T/C: 61.7%
Second compound 0.1 µM, first compound 0.000316 µM
  viability, T/C: 97.5%
Second compound 0.1 µM, first compound 0.001 µM
  viability, T/C: 92.3%
Second compound 0.1 µM, first compound 0.00316 µM
  viability, T/C: 83.3%
Second compound 0.1 µM, first compound 0.01 µM
  viability, T/C: 72.8%
[19]
  viability, T/C: 87.9%
[20]
  viability, T/C: 66.3%
Second compound 0.316 µM, first compound 0.000316 µM
  viability, T/C: 71.9%
Second compound 0.316 µM, first compound 0.001 µM
  viability, T/C: 94.2%
Second compound 0.316 µM, first compound 0.00316 µM
  viability, T/C: 75%
Second compound 0.316 µM, first compound 0.01 µM
  viability, T/C: 70.8%
[25]
  viability, T/C: 60.2%
[26]
  viability, T/C: 58.3%
Second compound 1 µM, first compound 0.000316 µM
  viability, T/C: 72.2%
Second compound 1 µM, first compound 0.001 µM
  viability, T/C: 58.1%
Second compound 1 µM, first compound 0.00316 µM
  viability, T/C: 58.3%
Second compound 1 µM, first compound 0.01 µM
  viability, T/C: 58.2%
[31]
  viability, T/C: 52.1%
[32]
  viability, T/C: 33%
